Measurements taken from patent US20250222143A1, “TARGETED RADIOTHERANOSTICS BASED ON POLYAZAMACROCYCLIC, MIXED-DONOR SCAFFOLDS LINKED TO A TARGETING VECTOR” (The Research Foundation for the State University of New York, priority 2021, published 2025).
Values joined by “and” are separate entries in the source; they are usually repeats but may differ in a detail not shown here. Equal entries are not always repeated. Where two headings read alike, the source gives them in different places. Values belong to the molecule of their own block, whether it stands above or below them.

Key:
human serum albumin [1] = target: T1, human serum albumin (Homo sapiens, UniProt P02768); assay: Binding to human serum albumin (ultrafiltration, Lu in filtrate by ICP-OES)
PSMA [2] = target: T2, PSMA (Homo sapiens, UniProt Q04609); details: value taken from literature; cited from earlier work
human serum albumin [3] = target: T1, human serum albumin; details: 15 min, 0.1 mM
[4] = Formulation stability of [Sc-^18F(picaga-DUPA)]^- by radioHPLC; type: physicochemical
Description: The stability of [Sc-^18F(picaga-DUPA)]^− in both DPBS and saline was evaluated for up to 4 h. It was determined that [Sc-^18F(picaga-DUPA)]^− was stable in both DPBS and saline for at least 4 h (FIG. 7A, B).
The [^18F]KF stock solution was prepared as previously described (39.4 mCi, 693 μL, pH 2.5). The Sc-^18F precursor was formed via direct addition of 200 μL 0.25 M ammonium acetate (pH 4.1) buffer and 20 nmol ScCl3 stock (0.25 eq.) to the [^18F]KF stock. Following incubation at room temperature for 10 minutes, 79.8 nmol picaga-DUPA (1 eq.) was added to 400 μL of the Sc-^18F precursor stock solution (13.11 mCi), then incubated at 100° C. for 25 minutes. The major [^18F]Sc—F(picaga)-DUPA species was separated the minor isomer and Sc-^18F via analytical radioHPLC (Method C). (FIG. 34) Purified [^18F]Sc—F(picaga)-DUPA complex was concentrated to dryness under reduced pressure and formulated for injection in DPBS (2.11 mCi, 550 μL). Dose formulation stability was analyzed at 0 and 4 hours (FIG. 34A), before and after in vivo experiments, via radioHPLC (Method C). Apparent molar activity: 164 mCi/μmol.

[5] = cited from earlier work
[6] = Spectrophotometric pH-dependent titration (complex formation pKa, speciation); type: physicochemical
Excerpt: As was previously shown, radiolabeling of Lu-177 with L1 is not feasible at room temperature, in part due to the comparatively high formation pKa of the [Lu(L1)] coordination complex (pH 2.4) (Vaughn, B. A. et al. 2021).

PSMA + and PSMA − tumors = details: previous work, 2 h post-injection, n = 4, cited from earlier work
[7] = Dose formulation stability of ^177Lu-radiolabeled ligands by radio-HPLC; type: physicochemical; details: DMSO:NH4OAc:phosphate buffered saline, room temperature
Description: The stability for ^177Lu-radiolabeled ligands was evaluated by radio-HPLC for radiolytic degradation and decomplexation at relevant time points concentrations for dose preparation, storage, and administration. (picaga)-HSA was radiolabeled as previously described at a specific activity of 0.08 mCi/nmol (3.0 MBq/nmol) and diluted in PBS. A 0.1 mL aliquot was removed, stored at room temperature, and tested for stability by radio-HPLC. The activity concentration at t=0 was 0.12 mCi in 0.1 mL.
Under the same conditions, ^177Lu-PSMA-617 was determined to be 80% intact.

PSMA+PC3 PIP cells = assay: Cell uptake and internalization; type: cell-based
Description: The binding and internalization of ^177Lu-(picaga)-HSA and ^177Lu-PSMA-617 was evaluated in PSMA+PC3 PIP cells. In brief, 5×10^5 PC3 PiP cells are suspended, washed and aliquoted. The internalized fraction is determined using ^177Lu-ligand in PC3 PiP cells, with ligands radiolabeled at a specific activity of 0.08 mCi/nmol (3.0 MBq/nmol) and diluted in PBS. […] Subsequently, cell samples were lysed by addition of NaOH (1 M, 1 mL) to release cellular contents and internalized ^177Lu-(picaga)-HSA. Radioactive counts are quantitated separately using a gamma well counter, with each incubation conducted in triplicate.

PSMA+PC-3 PIP tumors [8] = assay: Single dose radiotherapy study in PC-3 PIP tumor-bearing mice; details: single dose 3.7 MBq
[9] = Whole body activity clearance (dose calibrator); design: species or system mice; details: mouse, in vivo
Description: Whole body activity was measured by placing each mouse into a dose-calibrator. % Remaining activity was given by =[At/At=0] where At is the decay-corrected whole body activity at time t and At-0 is the total activity measured by dose calibrator p.i. The data were fit to a one-phase decay curve in GraphPad Prism and the biological decay constant K was calculated to be K=0.005638 h^−1 for ^177Lu-(picaga)-HSA and K=0.1415 h^−1 for ^177Lu-PSMA-617.
To approximate clearance of the ^177Lu-constructs, therapy cohort treated with ^177Lu-(picaga)-HSA and ^177Lu-PSMA-617 were monitored for residual whole-body activity remaining in the mouse. The whole-body activity remaining was plotted and the biological half-life in PSMA+tumor-bearing mice was determined using nonlinear regression in Graph Pad Prism (FIG. 16; Table 5). […] This is attributable to both the longer blood half-life because of the HSA-binding functionality and to the enhanced tumor uptake afforded by the longer blood circulation.

PSMA+PC-3 PIP tumors [10] = assay: Pilot therapy study with ^177Lu-picaga-DUPA; details: 3.3 MBq, n = 4, 14 days
PSMA [11] = target: T2, PSMA; assay: Displacement assay against ^99mTc(CO)3-MIP-1427 for binding affinity to PSMA; details: displacement of ^99mTc-MIP-1427, DCFPyL as internal reference; read-out: affinity (Ki) to the PSMA target
Description: Stock solutions of Lu-(picaga)-HSA in (DMSO: H2O, 1:5) were prepared and concentrations were determined by ICP-OES in accordance with previously published method.
The Ki was determined by nonlinear regression analysis using GraphPad Prism software.
Prior to the assessment of the ^177Lu-labeled compounds, binding affinity to the biological target PSMA was evaluated.

T1 sequence (P02768 25-609): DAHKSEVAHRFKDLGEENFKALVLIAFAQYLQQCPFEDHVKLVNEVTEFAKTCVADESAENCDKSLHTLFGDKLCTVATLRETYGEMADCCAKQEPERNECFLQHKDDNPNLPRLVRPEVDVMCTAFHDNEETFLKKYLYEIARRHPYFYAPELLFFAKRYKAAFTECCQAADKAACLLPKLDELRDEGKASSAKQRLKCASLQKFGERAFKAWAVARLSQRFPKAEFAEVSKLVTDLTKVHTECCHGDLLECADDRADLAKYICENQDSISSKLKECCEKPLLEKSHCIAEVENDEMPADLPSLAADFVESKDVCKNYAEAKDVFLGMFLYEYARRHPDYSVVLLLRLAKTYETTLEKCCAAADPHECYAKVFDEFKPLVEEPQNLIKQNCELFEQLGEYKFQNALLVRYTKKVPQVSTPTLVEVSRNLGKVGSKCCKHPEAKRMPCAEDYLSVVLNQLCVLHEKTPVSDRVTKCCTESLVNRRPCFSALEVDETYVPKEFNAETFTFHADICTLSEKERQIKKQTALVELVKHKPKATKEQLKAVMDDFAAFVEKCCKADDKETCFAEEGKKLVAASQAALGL
T2 sequence (Q04609 whole entry): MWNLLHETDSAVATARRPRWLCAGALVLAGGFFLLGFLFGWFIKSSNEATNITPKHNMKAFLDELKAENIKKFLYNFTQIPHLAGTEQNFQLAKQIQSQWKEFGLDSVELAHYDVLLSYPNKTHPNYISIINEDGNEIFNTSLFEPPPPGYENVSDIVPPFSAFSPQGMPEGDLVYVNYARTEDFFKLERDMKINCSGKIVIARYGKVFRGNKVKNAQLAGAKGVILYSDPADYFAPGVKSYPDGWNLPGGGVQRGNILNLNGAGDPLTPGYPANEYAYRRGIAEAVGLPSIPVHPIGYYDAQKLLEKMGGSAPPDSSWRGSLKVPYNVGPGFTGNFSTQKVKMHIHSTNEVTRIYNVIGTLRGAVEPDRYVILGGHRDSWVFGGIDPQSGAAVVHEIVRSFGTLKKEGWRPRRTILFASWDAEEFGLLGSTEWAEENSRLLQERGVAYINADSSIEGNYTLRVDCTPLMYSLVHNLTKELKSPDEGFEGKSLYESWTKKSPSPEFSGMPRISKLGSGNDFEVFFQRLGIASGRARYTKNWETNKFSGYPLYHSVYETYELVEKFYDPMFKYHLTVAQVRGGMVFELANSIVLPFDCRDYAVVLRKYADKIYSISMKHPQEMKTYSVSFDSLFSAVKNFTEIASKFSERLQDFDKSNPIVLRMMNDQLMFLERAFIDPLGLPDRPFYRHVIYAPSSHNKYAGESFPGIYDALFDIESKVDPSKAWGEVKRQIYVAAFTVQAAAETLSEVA

- difference in compound in the filtrate with or without HSA (human serum albumin [1]; 4.5% HSA in PBS vs PBS, chelator-only control): no significant difference
SMILES: O=C([O-])CN1CCN(CC(=O)[O-])CCN(Cc2cccc(C(=O)[O-])n2)CC1.[Lu+3] [Lu-mpaten]

- binding to HSA compared to PBS (human serum albumin [3]): 55±1.2%
SMILES: O=C(O)CC[C@H](NC(=O)N[C@@H](CCCCNC(=O)[C@H](Cc1ccc2ccccc2c1)NC(=O)[C@H]1CC[C@H](CNC(=O)CN2CCN(CC(=O)O)CCN(CC(=O)O)CCN(CC(=O)O)CC2)CC1)C(=O)O)C(=O)O [PSMA-617]
- Ki (PSMA [2]): 6.9 ± 1.3 nM

- stability in DPBS ([4]; DPBS, evaluated for up to 4 h): at least 4 h
- stability in saline ([4]; saline, evaluated for up to 4 h): at least 4 h
SMILES: O=C([O-])CN1CCN(Cc2cccc(C(=O)[O-])n2)CCN(C(CCC(=O)NCCCCCNC(=O)CCC(NC(=O)NC(CCC(=O)O)C(=O)O)C(=O)O)C(=O)[O-])CC1.[18F-].[Sc+3] (stereo not drawn) [Sc-^18F(picaga)-DUPA]
- radioHPLC after purification and storage in PBS for 4 hours [4]: no detectable decomposition even after 4 hours
- radioHPLC after purification and storage in PBS for 4 hours ([4]; listed as [^18F]Sc—F(picaga)-DUPA): No degradation or defluorination is observed

SMILES: O=C([O-])CN1CCNCCN(CC(=O)[O-])CC1.[Al+3].[OH-] [[(Al(NO2A)(OH)], reference compound]
- pH at which hydroxide complex can form ([5]; literature): < 5

SMILES: O=C([O-])CN1CCN(CC(=O)[O-])CCN(Cc2cccc(C(=O)[O-])n2)CC1.[Lu+3] [[Lu(L1)]]
- complex formation pKa (pH of first complex species) ([5]; previously shown (Vaughn, B. A. et al. 2021)): 2.4

- complex formation pKa (pH of first complex species) [6]: 0.9
SMILES: O=C([O-])CN1CCN(CC(=O)[O-])CCN(Cc2cccc(P(=O)([O-])[O-])n2)CC1.[Lu+3] [[Lu(L2)]]

SMILES: O=C([O-])CN1CCN(CC(=O)[O-])CCN(Cc2cccc(C(=O)[O-])n2)CC1.[OH-].[Sc+3] [[Sc(mpatcn)(OH)]^−]
- pKa of hydroxide complex ([5]; deprotonation of Sc-bound inner sphere water, literature): 9.1

SMILES: O=C([O-])CN1CCN(Cc2cccc(C(=O)[O-])n2)CCN(C(CCC(=O)NCCCCCNC(=O)CCC(NC(=O)NC(CCC(=O)O)C(=O)O)C(=O)O)C(=O)[O-])CC1.[47Sc+3] (stereo not drawn) [^47Sc(picaga)-DUPA]
- Blood 2 h (PSMA + and PSMA − tumors; Blood): 0.19 ± 0.14 % ID/g
- Bone 2 h (PSMA + and PSMA − tumors; Bone): 0.12 ± 0.06 % ID/g
- Heart 2 h (PSMA + and PSMA − tumors; Heart): 0.11 ± 0.03 % ID/g
- Kidney 2 h (PSMA + and PSMA − tumors; Kidney): 7.13 ± 3.73 % ID/g
- Liver 2 h (PSMA + and PSMA − tumors; Liver): 1.22 ± 1.88 % ID/g
- Muscle 2 h (PSMA + and PSMA − tumors; Muscle): 0.08 ± 0.03 % ID/g
- PSMA + Tumor 2 h (PSMA + and PSMA − tumors; PSMA + Tumor): 12.74 ± 2.87 % ID/g
- PSMA − Tumor 2 h (PSMA + and PSMA − tumors; PSMA − Tumor): 0.77 ± 1.11 % ID/g
- Sm. Int. 2 h (PSMA + and PSMA − tumors; Sm. Int.): 0.18 ± 0.07 % ID/g
- Spleen 2 h (PSMA + and PSMA − tumors; Spleen): 0.24 ± 0.10 % ID/g

SMILES: O=C([O-])CN1CCN(CC(=O)[O-])CCN(CC(=O)NCC2CCC(C(=O)N[C@@H](Cc3ccc4ccccc4c3)C(=O)NCCCC[C@H](NC(=O)N[C@@H](CCC(=O)O)C(=O)O)C(=O)O)CC2)CCN(CC(=O)[O-])CC1.[177Lu+3] (stereo partly drawn) [^177Lu-PSMA-617, reference compound]
- complex stability in dose formulation, 4 h ([7]; 4 h): >99%
- complex stability in dose formulation, 24 h ([7]; 24 h): >99%
- complex stability in dose formulation, 48 h ([7]; 48 h): >99%
- complex stability in dose formulation, 14 d (% intact) ([7]; 14 d): 80%
- % Internalization 2 h (PSMA+PC3 PIP cells; 2 h): 33.53±1.40% and 33.53%
- % Uptake 2 h (PSMA+PC3 PIP cells; 2 h): 6.36±0.43% and 6.36%
- % Internalization 4 h (PSMA+PC3 PIP cells; 4 h): 36.11±2.93% and 36.11%
- % Uptake 4 h (PSMA+PC3 PIP cells; 4 h): 6.15±0.21% and 6.15%
- % Internalization 24 h (PSMA+PC3 PIP cells; 24 h): 50.93±2.14% and 50.93%
- % Uptake 24 h (PSMA+PC3 PIP cells; 24 h): 9.60±0.11% and 9.60%
- % Uptake Blocking (PSMA+PC3 PIP cells; blocking with unlabeled glu-urea-glu PSMA targeting molecule): 0.45±0.03% and 0.45%
- relative body weight during therapy study (PSMA+PC-3 PIP tumors [8]): dropped during the study
- tumor growth / survival compared to control cohort (PSMA+PC-3 PIP tumors [8]; PC-3 PIP tumor-bearing mice): marginally enhanced survival and delayed tumor growth
- median survival (PSMA+PC-3 PIP tumors [8]; PC-3 PIP tumor-bearing mice, study to day 60): 21 days
- biological decay constant K [9]: 0.1415 h^−1
- biological half-life t1/2 [9]: 4.9 h
- % activity remaining in whole body p.i., 0 h ([9]; 0 h): 100.00 ± 0.00%
- % activity remaining in whole body p.i., 24 h ([9]; 24 h): 3.35 ± 0.16%

SMILES: O=C([O-])CN1CCN(Cc2cccc(C(=O)[O-])n2)CCN(C(CCC(=O)NCCCCCNC(=O)CCC(NC(=O)NC(CCC(=O)O)C(=O)O)C(=O)O)C(=O)[O-])CC1.[177Lu+3] (stereo not drawn) [^177Lu-picaga-DUPA]
- delay in tumor growth (pilot data) (PSMA+PC-3 PIP tumors [10]): delay in tumor growth for ^177Lu-PSMA-617 was similar to the delay observed in our pilot data

SMILES: O=C([O-])CN1CCN(Cc2cccc(C(=O)[O-])n2)CCN(C(CCC(=O)NC(CCCCNC(=O)CCCc2ccc(I)cc2)C(=O)NCC2CCC(C(=O)NC(Cc3ccc4ccccc4c3)C(=O)NCCCCC(NC(=O)NC(CCC(=O)O)C(=O)O)C(=O)O)CC2)C(=O)[O-])CC1.[Lu+3] (stereo not drawn) [^natLu-(picaga)-HSA]
- Ki (PSMA [11]): 1.4 ± 0.6 nM
- binding to HSA compared to PBS (human serum albumin [1]; 0.1 mM ^natLu complex, 4.5% HSA in PBS, 37° C., 15 min, 50 KDa filter): 80±3.3%
